Results on 19 compounds are retold here after US11952344B2, “Heterocyclic compound and use thereof” (TAKEDA PHARMACEUTICAL COMPANY LIMITED, priority 2019, dated 2024).

Test [1] concerns the target T1, Human NMDA (NR1/NR2B) Receptor (Homo sapiens, UniProt Q13224).
T1 construct: host or cells: HEK293
Briefly: NR2B Ca2+ influx assay. The format is cell-based. The following applies: 10 μM compound; HEK293 cells expressing GRIN1 and GRIN2B; glutamic acid/glycine-induced Ca2+ influx, Fluo-4 fluorescence; read-out: inhibitory rate (10 μM compound concentration). A digest of the protocol: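 HEK293 cells stably expressing human GRIN1/GRIN2B were tetracycline-induced for 2 h, loaded with Fluo-4AM and preincubated 15 min at room temperature with compound at 10 μM final. Ca2+ influx was triggered by glutamic acid and glycine and fluorescence (ex 480/em 540 nm) was recorded for 5 min. Inhibition was computed from cumulative fluorescence.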

The target in test [2] is T2, NMDA receptor containing the NR2B subunit (Rattus norvegicus, UniProt Q00960). Briefly: [3H]MK-801 binding test in vivo (hippocampus). Also on record: from tissue; host or cells: rat hippocampus (Sprague Dawley); species or system Sprague Dawley rats. The following applies: po, [3H]MK-801 binding inhibitory rate, 1 mg/kg p.o., vehicle = 100% binding, excess MK-801 maleate = 0%. On the procedure:
Experimental Example 2 [^3H]MK-801 Binding Test In Vivo
In order to confirm “functional antagonistic action on an NMDA receptor containing the NR2B subunit in vivo” which the compound of the present invention has, binding test was performed using tritium-labeled form of MK-801 ((5R,10S)-5-methyl-10,11-dihydro-5H-5,10-epiminodibenzo[a,d][7]annulene) ([^3H]MK-801), which is a compound capable of binding to the opening site of the NMDA receptor.
The example compound (1 mg/kg/2 mL, 0.5% MC water) or vehicle ([…], 0.5% MC water) was orally administered (p.o.) to Sprague Dawley rats (body weight 180-260 g). After a certain time (around after time-to maximum blood concentration), [^3H]MK-801 (20 μCi/kg/mL, Muromachi Kikai) was intravenously administered. After 10 min, the rats were euthanized by decapitation, and subjected to craniotomy, and the hippocampus was collected. The collected hippocampus was homogenized in 30 volumes (30 mL per 1 g tissue) ice-cooled 20 mM Hepes (pH7.5, Hampton Research) using a homogenizer (T10 basic Ultra-Turrax) for […]. […] The filter was washed four times with ice-cooled saline (5 mL, Otsuka Pharmaceutical), put into a scintillation vial, and then 10 mL of liquid scintillator A (FUJIFILM Wako Pure Chemical Corporation) was added thereto, and the residual radioactivity was counted using liquid scintillation counter (ALOKA LSC-6100). Separately, the residual radioactivity in 100 μL of the homogenate before the filtration was counted in the same way. The value of [the residual radioactivity in the filter/the residual radioactivity in the 100 μL of the homogenate] was calculated as a [^3H]MK-801 binding rate to the NMDA receptor expressing in each individual hippocampus tissue. […] The difference between the percentage of [^3H]MK-801 binding rate in the group orally administered with the example compound and that in the vehicle control group (100%) was analyzed as [^3H]MK-801 binding inhibitory rate by the example compound.

The target of test [3] is T3, NMDA receptor containing the NR2B subunit (Homo sapiens, UniProt Q13224). The following applies: in vivo; cited from earlier work.
For test [4], the system named is NMDA receptor. The following applies: single intravenous administration; major depression and bipolar disorder; cited from earlier work.
The target in test [5] is T3, NMDA receptor containing the NR2B subunit. Conditions: continuous intravenous administration; cited from earlier work.
Test [6] addresses T2, NMDA receptor containing the NR2B subunit. Conditions: rodents; cited from earlier work.
Test [7] concerns NMDA receptor. Conditions: in vivo; cited from earlier work.

T1 sequence (Q13224 27-1484, other chains not shown): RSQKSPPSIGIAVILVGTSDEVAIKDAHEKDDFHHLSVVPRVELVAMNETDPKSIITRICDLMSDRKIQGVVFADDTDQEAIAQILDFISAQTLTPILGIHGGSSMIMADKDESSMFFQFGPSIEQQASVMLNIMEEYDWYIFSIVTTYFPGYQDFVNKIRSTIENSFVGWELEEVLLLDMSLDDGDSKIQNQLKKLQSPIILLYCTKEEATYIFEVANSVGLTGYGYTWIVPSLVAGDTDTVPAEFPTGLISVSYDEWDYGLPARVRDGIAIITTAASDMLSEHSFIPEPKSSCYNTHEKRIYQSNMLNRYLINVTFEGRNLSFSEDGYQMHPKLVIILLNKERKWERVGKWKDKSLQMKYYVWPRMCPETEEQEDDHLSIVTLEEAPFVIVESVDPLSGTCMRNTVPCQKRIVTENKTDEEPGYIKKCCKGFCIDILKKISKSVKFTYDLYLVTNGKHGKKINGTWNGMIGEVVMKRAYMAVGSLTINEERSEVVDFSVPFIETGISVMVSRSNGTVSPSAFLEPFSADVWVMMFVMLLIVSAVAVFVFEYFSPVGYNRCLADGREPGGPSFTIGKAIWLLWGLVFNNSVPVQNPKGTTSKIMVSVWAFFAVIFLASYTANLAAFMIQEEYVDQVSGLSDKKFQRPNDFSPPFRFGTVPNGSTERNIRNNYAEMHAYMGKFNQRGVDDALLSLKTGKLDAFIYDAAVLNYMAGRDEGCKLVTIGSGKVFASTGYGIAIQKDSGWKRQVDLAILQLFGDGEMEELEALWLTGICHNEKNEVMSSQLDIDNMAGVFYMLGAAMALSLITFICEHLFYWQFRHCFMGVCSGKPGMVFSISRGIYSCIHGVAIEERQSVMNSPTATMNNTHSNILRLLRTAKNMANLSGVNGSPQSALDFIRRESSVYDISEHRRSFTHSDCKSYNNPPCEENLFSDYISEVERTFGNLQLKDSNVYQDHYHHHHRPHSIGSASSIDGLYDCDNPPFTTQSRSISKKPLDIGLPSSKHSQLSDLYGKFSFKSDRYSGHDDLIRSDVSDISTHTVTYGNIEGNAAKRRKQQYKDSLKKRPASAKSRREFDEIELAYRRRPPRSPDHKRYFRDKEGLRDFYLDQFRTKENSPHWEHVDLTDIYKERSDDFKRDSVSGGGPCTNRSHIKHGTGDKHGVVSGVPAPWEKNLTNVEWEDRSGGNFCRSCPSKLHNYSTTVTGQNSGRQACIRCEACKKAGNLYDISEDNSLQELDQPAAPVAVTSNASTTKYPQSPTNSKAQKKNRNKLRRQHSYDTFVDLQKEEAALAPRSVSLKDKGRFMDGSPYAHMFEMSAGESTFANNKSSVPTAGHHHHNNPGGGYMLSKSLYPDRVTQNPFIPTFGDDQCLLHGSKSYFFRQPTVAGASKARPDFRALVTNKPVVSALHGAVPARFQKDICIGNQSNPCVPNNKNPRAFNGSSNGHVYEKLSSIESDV
T2 sequence (Q00960 27-1482, other chains not shown): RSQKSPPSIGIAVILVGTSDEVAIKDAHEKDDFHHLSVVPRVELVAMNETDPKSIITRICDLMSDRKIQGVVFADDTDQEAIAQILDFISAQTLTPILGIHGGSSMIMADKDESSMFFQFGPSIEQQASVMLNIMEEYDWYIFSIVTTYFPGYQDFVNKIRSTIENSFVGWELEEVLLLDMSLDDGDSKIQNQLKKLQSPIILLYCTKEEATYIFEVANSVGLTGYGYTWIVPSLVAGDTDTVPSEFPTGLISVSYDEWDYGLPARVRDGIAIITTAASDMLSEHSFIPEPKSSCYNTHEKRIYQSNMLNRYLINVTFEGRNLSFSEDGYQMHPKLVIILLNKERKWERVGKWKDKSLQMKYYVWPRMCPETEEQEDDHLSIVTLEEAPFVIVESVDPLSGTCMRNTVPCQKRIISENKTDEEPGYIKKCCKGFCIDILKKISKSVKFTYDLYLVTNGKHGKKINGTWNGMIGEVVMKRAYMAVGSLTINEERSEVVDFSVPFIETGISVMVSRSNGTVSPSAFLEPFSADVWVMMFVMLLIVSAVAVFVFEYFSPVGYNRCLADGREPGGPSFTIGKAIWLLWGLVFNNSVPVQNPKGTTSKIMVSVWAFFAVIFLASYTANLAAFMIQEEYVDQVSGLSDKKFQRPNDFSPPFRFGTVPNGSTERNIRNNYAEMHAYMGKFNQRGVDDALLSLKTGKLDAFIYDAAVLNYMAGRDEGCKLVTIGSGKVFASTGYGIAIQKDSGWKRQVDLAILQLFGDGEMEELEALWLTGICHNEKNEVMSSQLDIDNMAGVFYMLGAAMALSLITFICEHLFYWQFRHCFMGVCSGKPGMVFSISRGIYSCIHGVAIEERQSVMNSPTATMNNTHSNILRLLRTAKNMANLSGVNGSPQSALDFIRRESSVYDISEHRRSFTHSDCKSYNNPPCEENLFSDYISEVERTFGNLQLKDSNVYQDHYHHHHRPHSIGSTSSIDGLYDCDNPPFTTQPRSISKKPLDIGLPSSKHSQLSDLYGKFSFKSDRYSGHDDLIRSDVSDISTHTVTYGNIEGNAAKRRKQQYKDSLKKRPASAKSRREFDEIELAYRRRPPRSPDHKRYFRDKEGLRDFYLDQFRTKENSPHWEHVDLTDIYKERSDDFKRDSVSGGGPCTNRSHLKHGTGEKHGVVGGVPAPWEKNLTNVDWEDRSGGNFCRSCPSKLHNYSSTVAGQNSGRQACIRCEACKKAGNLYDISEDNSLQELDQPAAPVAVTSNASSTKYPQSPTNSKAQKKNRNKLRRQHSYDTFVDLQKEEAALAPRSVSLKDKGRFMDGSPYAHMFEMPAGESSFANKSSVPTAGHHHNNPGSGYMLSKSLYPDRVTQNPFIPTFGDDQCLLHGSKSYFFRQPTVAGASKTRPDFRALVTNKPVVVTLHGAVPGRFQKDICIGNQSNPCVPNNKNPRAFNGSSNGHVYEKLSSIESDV
T3 sequence (Q13224 27-1484, other chains not shown): as the sequence (Q13224 27-1484, other chains not shown) above

As to `COc1ncncc1CNC(=O)c1cc(F)c(OC(F)F)c(F)c1` [Example 63, 4-(difluoromethoxy)-3,5-difluoro-N-[(4-methoxypyrimidin-5-yl)methyl]benzamide], the inhibition at 10 µM in test [1] amounted to 90%. In test [2], this compound registered an inhibition at 1 mg/kg of 10%.

Turning to `CC(C(O)c1ccc(O)cc1)N1CCC(Cc2ccccc2)CC1` (centres unmarked) [Ifenprodil], the pain sense threshold entry in test [3] was “the pain sense threshold increases”. As for `COc1ncncc1CNC(=O)c1cnc(OC(F)F)c(F)c1` [Example 12, 6-(difluoromethoxy)-5-fluoro-N-[(4-methoxypyrimidin-5-yl)methyl]pyridine-3-carboxamide], the inhibition at 10 µM in test [1] was determined as 92%. This compound also returned an inhibition at 1 mg/kg in test [2] of 23%. The like results for `COc1cncc(CNC(=O)c2cnc(OC(F)F)c(F)c2)c1` [Example 42, 6-(difluoromethoxy)-5-fluoro-N-[(5-methoxypyridin-3-yl)methyl]pyridine-3-carboxamide] were, in that order, 94% and 14%. Take `CNC1(c2ccccc2Cl)CCCCC1=O` (centres unmarked) [ketamine]: the “improvement of depression symptom” value in test [4] was “improves depression symptom accompanying major depression and bipolar disorder rapidly and in a sustained manner”. On to `C[C@@H]([C@@H](O)c1ccc(O)cc1)N1CCC(O)(c2ccccc2)CC1` [CP-101, 606], for which the “improvement of treatment resistant-depression symptom” value in test [5] is “significantly improves treatment resistant-depression symptom”. The “number of occurrence and depth of cortical spreading depression” value in test [6] was “suppress the number of occurrence and the depth of cortical spreading depression”. As for `CC12CC3CC(C)(C1)CC(N)(C3)C2` [memantine], the “improvement of peripheral symptoms of dementia” value in test [7] is “partially improves peripheral symptoms of dementia”. As to `C[C@@H](CN1CCC(Cc2ccccc2)CC1)[C@@H](O)c1ccc(O)cc1` [Ro25-6981], the “number of occurrence and depth of cortical spreading depression” value in test [6] was “suppress the number of occurrence and the depth of cortical spreading depression”. As for `Cc1ncncc1CNC(=O)c1cnc(OC(F)F)c(F)c1` [Example 31, 6-(difluoromethoxy)-5-fluoro-N-[(4-methylpyrimidin-5-yl)methyl]pyridine-3-carboxamide], the inhibition at 10 µM in test [1] was 68%. Still for that read-out and setting: next, `O=C(NCc1cncnc1C1CC(F)(F)C1)c1cnc(OC(F)F)c(F)c1` [Example 36, N-{[4-(3,3-difluorocyclobutyl)-pyrimidin-5-yl]methyl}-6-(difluoromethoxy)-5-fluoropyridine-3-carboxamide]: 92%; `CCOc1c(F)cc(C(=O)NCc2cnccc2C)cc1F` [Example 72, 4-ethoxy-3,5-difluoro-N-[(4-methylpyridin-3-yl)methyl]benzamide]: 87%. Still for that read-out and setting: next, `COc1ncc(C(=O)NCc2cnccc2C)cc1Cl` [Example 66, 5-chloro-6-methoxy-N-[(4-methylpyridin-3-yl)methyl]pyridine-3-carboxamide]: 84%. The same measure, in the same setting: next, `O=C(NCc1cncnc1OC1CC1)c1cnc(C2CC2)c(F)c1` [Example 81, 6-cyclopropyl-N-{[4-(cyclopropyloxy)-pyrimidin-5-yl]methyl}-5-fluoropyridine-3-carboxamide]: 90%; `CCc1ncncc1CNC(=O)c1cnc(OC(F)F)c(F)c1` [Example 28, 6-(difluoromethoxy)-N-[(4-ethylpyrimidin-5-yl)methyl]-5-fluoropyridine-3-carboxamide]: 87%. In the case of `Cc1c(F)cncc1CNC(=O)c1cnc(C(C)(F)F)c(Cl)c1` [Example 98, 5-chloro-6-(1,1-difluoroethyl)-N-[(5-fluoro-4-methylpyridin-3-yl)methyl]pyridine-3-carboxamide], the inhibition at 10 µM in test [1] stood at 95%.

As to `Cc1ccncc1CNC(=O)c1cnc(OC(F)(F)F)c(F)c1` [Example 35, 5-fluoro-N-[(4-methylpyridin-3-yl)methyl]-6-(trifluoromethoxy)-pyridine-3-carboxamide], the inhibition at 10 µM in test [1] turned out to be 96%. On to `COc1ccncc1CNC(=O)c1cnc(OC(F)F)c(F)c1` [Example 5, 6-(difluoromethoxy)-5-fluoro-N-[(4-methoxypyridin-3-yl)methyl]pyridine-3-carboxamide], for which the inhibition at 10 µM in test [1] amounted to 94%. On the same count and under the same terms, next, `O=C(NCc1cnccc1C(F)F)c1cnc(OC(F)F)c(F)c1` [Example 70, 6-(difluoromethoxy)-N-{[4-(difluoromethyl)pyridin-3-yl]methyl)-5-fluoropyridine-3-carboxamide]: 91%; `CCc1c(F)cncc1CNC(=O)c1cnc(OC(F)F)c(F)c1` [Example 41, 6-(difluoromethoxy)-N-[(4-ethyl-5-fluoropyridin-3-yl)methyl]-5-fluoropyridine-3-carboxamide]: 94%.
